Data reported in ChEMBL document CHEMBL2094260, “Malaria Box Tuberculosis Screening Data”.
≈ marks a conversion by molar mass, not a printed value.

Test system: Mycobacterium tuberculosis
Assay: MMV: Screen against Mtb, single point, non replicating, at 25uM
Type: functional
Details: not given

SMILES	inhibition at 25 µM [%]
COc1ccc(Nc2nc(NCc3ccccc3)c3ccccc3n2)cc1	53.9
Nc1ccc(-c2nc3cc(Cc4ccc5[nH]c(-c6ccc(N)cc6)nc5c4)ccc3[nH]2)cc1	41.4
COc1ccc(Nc2cc(C)nc(NCc3ccccc3)n2)cc1	22.6
OC(CNCc1ccccc1)Cn1c2ccccc2c2ccccc21 (centres undefined)	14.3
Cc1ccc(Nc2nc(-c3ccccn3)cs2)cc1	23
Cc1cc(N2CCCC2)nc(Nc2ccc(NC(=O)CCc3ccccc3)cc2)n1	9.94
CCCCCCn1c(=N)n(CC(O)COc2cccc(C)c2)c2ccccc21 (centres undefined)	31.3
Cc1ccc(NC(=O)Nc2cccc(Cl)c2)cc1F	19.7
O=C(Nc1cccc(C(F)(F)F)c1)c1cc(Cl)ccc1O	102
CC(=O)c1ccc(NC(=O)CSc2nc(-c3ccccc3Cl)ns2)cc1	13.4
OC(CNC1CCCCC1)Cn1c2ccccc2c2ccccc21 (centres undefined)	14
CCOc1ccc2nc(C)cc(Nc3ccc(Br)cc3)c2c1	11.1
O=C(NC1CCN(Cc2ccccc2)CC1)c1cc(-c2ccncc2)nc2ccc(Cl)cc12	20.6
Clc1cc(Br)ccc1-c1ccc(CNCC2CCNCC2)o1	34.2
CCn1nc(-c2ccc(C(=O)OC)cc2)nc2c(=O)n(C)c(=O)nc1-2	65.1

Test system: Mycobacterium tuberculosis
Assay: MMV: CRC and MIC90 against Mtb (replicating)
Type: functional
Details: not given

SMILES	MIC90 [µM]
COc1ccc(Nc2nc(NCc3ccccc3)c3ccccc3n2)cc1	7.33 (≈ 2.61 µg/mL)
Nc1ccc(-c2nc3cc(Cc4ccc5[nH]c(-c6ccc(N)cc6)nc5c4)ccc3[nH]2)cc1	10.9 (≈ 4.69 µg/mL)
COc1ccc(Nc2cc(C)nc(NCc3ccccc3)n2)cc1	18 (≈ 5.77 µg/mL)
OC(CNCc1ccccc1)Cn1c2ccccc2c2ccccc21 (centres undefined)	20.1 (≈ 6.64 µg/mL)
Cc1ccc(Nc2nc(-c3ccccn3)cs2)cc1	50.7 (≈ 13.6 µg/mL)
Cc1cc(N2CCCC2)nc(Nc2ccc(NC(=O)CCc3ccccc3)cc2)n1	14 (≈ 5.62 µg/mL)
CCCCCCn1c(=N)n(CC(O)COc2cccc(C)c2)c2ccccc21 (centres undefined)	9.69 (≈ 3.7 µg/mL)
Cc1ccc(NC(=O)Nc2cccc(Cl)c2)cc1F	28.8 (≈ 8.03 µg/mL)
O=C(Nc1cccc(C(F)(F)F)c1)c1cc(Cl)ccc1O	3.87 (≈ 1.22 µg/mL)
CC(=O)c1ccc(NC(=O)CSc2nc(-c3ccccc3Cl)ns2)cc1	14 (≈ 5.65 µg/mL)
OC(CNC1CCCCC1)Cn1c2ccccc2c2ccccc21 (centres undefined)	55.9 (≈ 18 µg/mL)
CCOc1ccc2nc(C)cc(Nc3ccc(Br)cc3)c2c1	18.7 (≈ 6.68 µg/mL)
O=C(NC1CCN(Cc2ccccc2)CC1)c1cc(-c2ccncc2)nc2ccc(Cl)cc12	32.5 (≈ 14.9 µg/mL)
Clc1cc(Br)ccc1-c1ccc(CNCC2CCNCC2)o1	29.3 (≈ 11.2 µg/mL)
CCn1nc(-c2ccc(C(=O)OC)cc2)nc2c(=O)n(C)c(=O)nc1-2	> 100

Test system: Mycobacterium tuberculosis
Assay: MMV: CRC and MIC90 against Mtb (non replicating)
Type: functional
Details: not given

SMILES	MIC90 [µM]
COc1ccc(Nc2nc(NCc3ccccc3)c3ccccc3n2)cc1	48.7 (≈ 17.4 µg/mL)
Nc1ccc(-c2nc3cc(Cc4ccc5[nH]c(-c6ccc(N)cc6)nc5c4)ccc3[nH]2)cc1	> 100
COc1ccc(Nc2cc(C)nc(NCc3ccccc3)n2)cc1	> 100
OC(CNCc1ccccc1)Cn1c2ccccc2c2ccccc21 (centres undefined)	> 100
Cc1ccc(Nc2nc(-c3ccccn3)cs2)cc1	> 100
Cc1cc(N2CCCC2)nc(Nc2ccc(NC(=O)CCc3ccccc3)cc2)n1	> 100
CCCCCCn1c(=N)n(CC(O)COc2cccc(C)c2)c2ccccc21 (centres undefined)	27.9 (≈ 10.6 µg/mL)
Cc1ccc(NC(=O)Nc2cccc(Cl)c2)cc1F	> 100
O=C(Nc1cccc(C(F)(F)F)c1)c1cc(Cl)ccc1O	3.46 (≈ 1.09 µg/mL)
CC(=O)c1ccc(NC(=O)CSc2nc(-c3ccccc3Cl)ns2)cc1	> 100
OC(CNC1CCCCC1)Cn1c2ccccc2c2ccccc21 (centres undefined)	> 100
CCOc1ccc2nc(C)cc(Nc3ccc(Br)cc3)c2c1	> 100
O=C(NC1CCN(Cc2ccccc2)CC1)c1cc(-c2ccncc2)nc2ccc(Cl)cc12	> 100
Clc1cc(Br)ccc1-c1ccc(CNCC2CCNCC2)o1	> 100
CCn1nc(-c2ccc(C(=O)OC)cc2)nc2c(=O)n(C)c(=O)nc1-2	33.6 (≈ 11.5 µg/mL)

Test system: not listed separately
Assay: MMV: Cytotoxicity CRC and LD50 against HepG2
Type: toxicity, cell-based
Details: human, HepG2 cells; read-out: LD50 (the source's name)

SMILES	CC50 [µM]
COc1ccc(Nc2nc(NCc3ccccc3)c3ccccc3n2)cc1	2.59
Nc1ccc(-c2nc3cc(Cc4ccc5[nH]c(-c6ccc(N)cc6)nc5c4)ccc3[nH]2)cc1	2.45
COc1ccc(Nc2cc(C)nc(NCc3ccccc3)n2)cc1	6.9
OC(CNCc1ccccc1)Cn1c2ccccc2c2ccccc21 (centres undefined)	5.69
Cc1cc(N2CCCC2)nc(Nc2ccc(NC(=O)CCc3ccccc3)cc2)n1	2.64
CCCCCCn1c(=N)n(CC(O)COc2cccc(C)c2)c2ccccc21 (centres undefined)	3.27
Cc1ccc(NC(=O)Nc2cccc(Cl)c2)cc1F	11.1
O=C(Nc1cccc(C(F)(F)F)c1)c1cc(Cl)ccc1O	0.99
CC(=O)c1ccc(NC(=O)CSc2nc(-c3ccccc3Cl)ns2)cc1	41
OC(CNC1CCCCC1)Cn1c2ccccc2c2ccccc21 (centres undefined)	4.97
CCOc1ccc2nc(C)cc(Nc3ccc(Br)cc3)c2c1	3.95
O=C(NC1CCN(Cc2ccccc2)CC1)c1cc(-c2ccncc2)nc2ccc(Cl)cc12	7.1
Clc1cc(Br)ccc1-c1ccc(CNCC2CCNCC2)o1	1.78
CCn1nc(-c2ccc(C(=O)OC)cc2)nc2c(=O)n(C)c(=O)nc1-2	1.36

Test system: Mycobacterium tuberculosis
Assay: MMV: Screen against Mtb, single point, replicating, at 25uM
Type: functional
Details: not given

SMILES	inhibition at 25 µM [%]
COc1ccc(Nc2nc(NCc3ccccc3)c3ccccc3n2)cc1	98
Nc1ccc(-c2nc3cc(Cc4ccc5[nH]c(-c6ccc(N)cc6)nc5c4)ccc3[nH]2)cc1	94
COc1ccc(Nc2cc(C)nc(NCc3ccccc3)n2)cc1	95.5
OC(CNCc1ccccc1)Cn1c2ccccc2c2ccccc21 (centres undefined)	90.3
Cc1ccc(Nc2nc(-c3ccccn3)cs2)cc1	59.3
Cc1cc(N2CCCC2)nc(Nc2ccc(NC(=O)CCc3ccccc3)cc2)n1	82.1
CCCCCCn1c(=N)n(CC(O)COc2cccc(C)c2)c2ccccc21 (centres undefined)	98.5
Cc1ccc(NC(=O)Nc2cccc(Cl)c2)cc1F	80.7
O=C(Nc1cccc(C(F)(F)F)c1)c1cc(Cl)ccc1O	95.9
CC(=O)c1ccc(NC(=O)CSc2nc(-c3ccccc3Cl)ns2)cc1	96.2
OC(CNC1CCCCC1)Cn1c2ccccc2c2ccccc21 (centres undefined)	66.6
CCOc1ccc2nc(C)cc(Nc3ccc(Br)cc3)c2c1	95.7
O=C(NC1CCN(Cc2ccccc2)CC1)c1cc(-c2ccncc2)nc2ccc(Cl)cc12	66
Clc1cc(Br)ccc1-c1ccc(CNCC2CCNCC2)o1	86.5
CCn1nc(-c2ccc(C(=O)OC)cc2)nc2c(=O)n(C)c(=O)nc1-2	55.9
